Patent publication US20230181614A1, “ADMINISTRATION OF CITICOLINE TO IMPROVE COGNITIVE PERFORMANCE, ATTENTIONAL PERFORMANCE, AND MOTOR FUNCTION” (KYOWA HAKKO BIO CO., LTD., priority 2014, published 2023)

Columns and labels:
[1] = test system: Healthy subjects, ages 13-18; assay: Rey-Osterreith Complex Figure Test (ROCFT) / Modified Taylor Complex Figure; assay type: in vivo, human; parameters: key: raw score: elements correctly recalled, accuracy and placement; details: for ROCFT Copy Raw Score V1, Mean / ROCFT Delayed Raw Score V1, Mean / ROCFT Difference Raw Score V1, Mean / ROCFT Immediate Raw Score V1, Mean: Visit 1; for ROCFT V3-V1 Copy Raw Score, Mean / ROCFT V3-V1 Delayed Raw Score, Mean / ROCFT V3-V1 Difference Raw Score, Mean / ROCFT V3-V1 Immediate Raw Score, Mean: Visit difference score
Source text: Study participants were screened by telephone prior to study enrollment. Healthy subjects, ages 13-18, with no significant medical conditions and no history of co-morbid psychiatric disorder, current Axis I or II diagnosis, or previous participation in a pharmacotherapeutic trial, were selected. Use of any psychotropic medication or any previous head injury resulting in loss of consciousness for 5 or more minutes were used as exclusion criteria. While no participant met criteria for a neuropsychiatric disorder at enrollment, clinical assessments were still completed throughout the study to evaluate changes in mood state. In addition, self-reports of sleep habits, lifestyle, and exercise routines were also administered at baseline as well as at each study visit to assess changes in health habits during study participation. Following the completion of Visit 1 assessment, participants were given their 28-day supply of citicoline (250 mg or 500 mg) or placebo, which was randomly assigned. They were instructed to take one capsule a day every day for the next 28 days. Visit 2 occurred fourteen days after Visit 1. At Visit 2, the remaining study pills were counted and participant dosage calendars were checked to ensure compliance with the protocol. Additional neuropsychological measures and clinical assessments were administered during this visit. Participants returned for Visit 3 fourteen days later, on the 28th day of their study participation. The pill bottle and the dosage calendar were collected from each participant. Urine and blood were again obtained. Participants also participated in similar clinical and neuropsychological testing and clinical measures that were given during visit 1. The ROCFT is an assessment of visuo-organizational ability, visual attention, and visual memory. The participant is asked to copy a complex 2-dimensional figure with the stimulus or complex figure in front of them (Copy Trial), immediately after the stimulus has been removed (Short Delay Trial), and after 30 minutes without the stimulus present (Long Delay Trial). The figure produced at each trial is then evaluated for the strategy used in reproducing the figure, constructional accuracy, and placement of elements within the figure. The Copy, Short Delay, and Long Delay trials are each scored on the number of elements that have been correctly recalled and the accuracy and placement of each element. The Difference Score between immediate and delayed performance scores is a measure of temporary decay for visuospatial memory. This test was administered on both the first and the third visits. The Modified Taylor Complex Figure (MTCF) is an alternate form of the ROCFT to assess visuo-organizational ability, visual attention, and visual memory. The same procedure was used to administer the MTCF. The MTCF was administered at the second visit instead of the ROCFT to minimize the effect of repeat testing on copy and retention of the figure across visits.

[2] = test system: Healthy subjects, ages 13-18; assay: Monitoring of Side Effects Scale (MOSES); assay type: in vivo, human; details: for V2 MOSES (Mean): Visit 2; for V3 MOSES (Mean): Visit 3; for MOSES V3-V2 Score (Mean): visit difference score V3-V2; for MOSES difference scores, between groups: visit 1 to visit 3 (so in the source); for MOSES, within-group change: visit 2 to 3
Source text: Study participants were screened by telephone prior to study enrollment. Healthy subjects, ages 13-18, with no significant medical conditions and no history of co-morbid psychiatric disorder, current Axis I or II diagnosis, or previous participation in a pharmacotherapeutic trial, were selected. Use of any psychotropic medication or any previous head injury resulting in loss of consciousness for 5 or more minutes were used as exclusion criteria. While no participant met criteria for a neuropsychiatric disorder at enrollment, clinical assessments were still completed throughout the study to evaluate changes in mood state. In addition, self-reports of sleep habits, lifestyle, and exercise routines were also administered at baseline as well as at each study visit to assess changes in health habits during study participation. Following the completion of Visit 1 assessment, participants were given their 28-day supply of citicoline (250 mg or 500 mg) or placebo, which was randomly assigned. They were instructed to take one capsule a day every day for the next 28 days. Visit 2 occurred fourteen days after Visit 1. At Visit 2, the remaining study pills were counted and participant dosage calendars were checked to ensure compliance with the protocol. Additional neuropsychological measures and clinical assessments were administered during this visit. Participants returned for Visit 3 fourteen days later, on the 28th day of their study participation. The pill bottle and the dosage calendar were collected from each participant. Urine and blood were again obtained. Participants also participated in similar clinical and neuropsychological testing and clinical measures that were given during visit 1. The MOSES is a scale designed to assess common symptoms or adverse events associated with psychopharmacological medications. This scale is divided into nine body areas representing a typical physical examination. The interviewer asks subjects whether they have each symptom on the measure and, if so, asks them to report the level of severity of the symptom on a scale from 0 (not present) to 4 (severe). […]

Question: C[N+](C)(C)CCOP(=O)(O)OP(=O)([O-])OC[C@H]1O[C@@H](n2ccc(N)nc2=O)[C@H](O)[C@@H]1O [citicoline, Cytidine 5′-diphosphocholine] was tested. Which “ROCFT Copy Raw Score V1, Mean” value ([1]; 250 mg/day group) did it give?
Answer: The value was 29.72.

Question: And the “ROCFT Delayed Raw Score V1, Mean” value ([1]; 250 mg/day group)?
Answer: The value was 21.63.

Question: And the “ROCFT Difference Raw Score V1, Mean” value ([1]; 250 mg/day group)?
Answer: Its value is -0.24.

Question: What about the “ROCFT Immediate Raw Score V1, Mean” value ([1]; 250 mg/day group) of the same molecule?
Answer: The value was 21.39.

Question: And the “ROCFT V3-V1 Copy Raw Score, Mean” value ([1]; 250 mg/day group)?
Answer: Its value is 0.28.

Question: What about the “ROCFT V3-V1 Delayed Raw Score, Mean” value ([1]; 250 mg/day group) of the same molecule?
Answer: Its value is 3.80.

Question: And the “ROCFT V3-V1 Difference Raw Score, Mean” value ([1]; 250 mg/day group)?
Answer: The value was 1.35.

Question: And the “ROCFT V3-V1 Immediate Raw Score, Mean” value ([1]; 250 mg/day group)?
Answer: Its value is 5.15.

Question: What about the “ROCFT Copy Raw Score V1, Mean” value ([1]; 500 mg/day group) of the same molecule?
Answer: The value was 29.13.

Question: And the “ROCFT Delayed Raw Score V1, Mean” value ([1]; 500 mg/day group)?
Answer: The value was 19.00.

Question: And the “ROCFT Difference Raw Score V1, Mean” value ([1]; 500 mg/day group)?
Answer: Its value is 0.44.

Question: And the “ROCFT Immediate Raw Score V1, Mean” value ([1]; 500 mg/day group)?
Answer: Its value is 19.48.

Question: And the “ROCFT V3-V1 Copy Raw Score, Mean” value ([1]; 500 mg/day group)?
Answer: The value was 0.27.

Question: And the “ROCFT V3-V1 Delayed Raw Score, Mean” value ([1]; 500 mg/day group)?
Answer: The value was 5.31.

Question: And the “ROCFT V3-V1 Difference Raw Score, Mean” value ([1]; 500 mg/day group)?
Answer: The value was 0.13.

Question: What about the “ROCFT V3-V1 Immediate Raw Score, Mean” value ([1]; 500 mg/day group) of the same molecule?
Answer: The value was 5.40.

Question: And the “V2 MOSES (Mean)” value ([2]; 250 mg/day group)?
Answer: The value was 1.30.

Question: What about the “V3 MOSES (Mean)” value ([2]; 250 mg/day group) of the same molecule?
Answer: Its value is 1.04.

Question: What about the “MOSES V3-V2 Score (Mean)” value ([2]; 250 mg/day group) of the same molecule?
Answer: Its value is -0.26.

Question: And the “MOSES difference scores, between groups” value ([2]; 250 mg/day vs 500 mg/day, p=0.64)?
Answer: Its value is “no significant differences”.

Question: And the “MOSES, between groups” value ([2]; 250 mg/day vs 500 mg/day, visit 3, p=0.11)?
Answer: The value was “no significant difference”.

Question: What about the “MOSES difference scores, between groups” value ([2]; 250 mg/day vs Placebo, p=0.70) of the same molecule?
Answer: Its value is “no significant differences”.

Question: And the “MOSES, between groups” value ([2]; 250 mg/day vs Placebo, visit 3, p=0.21)?
Answer: The value was “no significant difference”.

Question: And the “MOSES, within-group change” value ([2]; 250 mg/day, p=0.34)?
Answer: The value was “no significant differences”.

Question: What about the “V2 MOSES (Mean)” value ([2]; 500 mg/day group) of the same molecule?
Answer: The value was 0.81.

Question: And the “V3 MOSES (Mean)” value ([2]; 500 mg/day group)?
Answer: The value was 0.38.

Question: What about the “MOSES V3-V2 Score (Mean)” value ([2]; 500 mg/day group) of the same molecule?
Answer: The value was -0.43.

Question: And the “MOSES, within-group change” value ([2]; 500 mg/day, p=0.07)?
Answer: The value was “trend toward significant differences”.

Question: What about the “MOSES difference scores, between groups” value ([2]; Placebo vs 500 mg/day, p=0.30) of the same molecule?
Answer: The value was “no significant differences”.

Question: What about the “MOSES, between groups” value ([2]; Placebo vs 500 mg/day, visit 3, p=0.85) of the same molecule?
Answer: The value was “No significant difference”.

Question: What about the “MOSES difference scores, three groups” value ([2]; p=0.66) of the same molecule?
Answer: The value was “no significant differences”.

Question: What about the “MOSES, overall analysis” value ([2]; three groups, visit 3, p=0.23) of the same molecule?
Answer: Its value is “no significant differences”.
